Common to all, as to test: Bliss interaction score (quartile over a dose matrix) (fitness difference); higher = more antagonism (negative = synergy)
The subject of one experiment is S. aureus Newman. Put shortly: (§1)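 Quartiles summarise the Bliss score over technical, biological and donor/recipient replicates, where the score is observed minus expected fitness under a product model. Expected fitness uses single-drug values inferred from combination data. Fitness is OD595 at entry into stationary phase over the plate's robust no-drug mean, capped at 1.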

In the next experiment the test system is S. aureus DSM 20231. The essentials:
as §1

A further experiment concerns S. pneumoniae D39V. Put shortly:
as §1

Another experiment relates to B. subtilis 168. Put shortly:
as §1
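Further: first quartile when negative (synergy) and third quartile when positive (antagonism).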

`CO[C@@]12[C@H](COC(N)=O)C3=C(C(=O)C(C)=C(N)C3=O)N1C[C@@H]1N[C@@H]12` [MitomycinC] + C/C(=C\C(=O)OCCCCCCCCC(=O)O)C[C@@H]1OC[C@H](C[C@@H]2O[C@H]2[C@@H](C)[C@H](C)O)[C@@H](O)[C@H]1O [Pseudomonic acid]: the Bliss interaction score in the experiment on S. aureus Newman was -0.0169; in the experiment on S. aureus DSM 20231, -0.011; with S. pneumoniae D39V it was -0.0895; in the experiment with B. subtilis 168 it was -0.0185.

Consider `CC(=O)NC[C@H]1CN(c2ccc(N3CCOCC3)c(F)c2)C(=O)O1` [Linezolid] + CN(C)C(=O)C(CCN1CCC(O)(c2ccc(Cl)cc2)CC1)(c1ccccc1)c1ccccc1 [Loperamide], for which the Bliss interaction score in the experiment with S. aureus Newman is -0.0501; in the experiment with S. aureus DSM 20231 it was 0.116; in the experiment with S. pneumoniae D39V, 0.176; in the experiment with B. subtilis 168, 0.0436.

Regarding `CN[C@H](CC(C)C)C(=O)N[C@H]1C(=O)N[C@@H](CC(N)=O)C(=O)N[C@H]2C(=O)N[C@H]3C(=O)N[C@H](C(=O)N[C@H](C(=O)O)c4cc(O)cc(O)c4-c4cc3ccc4O)[C@H](O[C@H]3C[C@](C)(N)[C@@H](O)[C@H](C)O3)c3ccc(c(Cl)c3)Oc3cc2cc(c3O[C@@H]2O[C@H](CO)[C@@H](O)[C@H](O)[C@H]2O[C@H]2C[C@](C)(NCc3ccc(-c4ccc(Cl)cc4)cc3)[C@@H](O)[C@H](C)O2)Oc2ccc(cc2Cl)[C@H]1O` [Oritavancin] + COc1ccc(C[C@H](N)C(=O)N[C@H]2[C@@H](O)[C@H](n3cnc4c(N(C)C)ncnc43)O[C@@H]2CO)cc1 [Puromycin], the Bliss interaction score is -0.0754 in the experiment on S. aureus Newman, -0.0699 in the experiment with S. aureus DSM 20231, 0.0762 in the experiment on S. pneumoniae D39V and 0.0232 in the experiment on B. subtilis 168.

Consider `CO[C@@]12[C@H](COC(N)=O)C3=C(C(=O)C(C)=C(N)C3=O)N1C[C@@H]1N[C@@H]12` [MitomycinC] + CN[C@@H]1[C@H](O)[C@H](NC)[C@H]2O[C@@]3(O)C(=O)C[C@@H](C)O[C@H]3O[C@@H]2[C@H]1O [Spectinomycin], for which the Bliss interaction score in the experiment on S. aureus Newman was -0.0974; in the experiment on S. aureus DSM 20231, 0.0772; in the experiment on S. pneumoniae D39V it was -0.06; in the experiment with B. subtilis 168 it was 0.0749.

As to `CO[C@@]12[C@H](COC(N)=O)C3=C(C(=O)C(C)=C(N)C3=O)N1C[C@@H]1N[C@@H]12` [MitomycinC] + CN[C@H](CC(C)C)C(=O)N[C@H]1C(=O)N[C@@H](CC(N)=O)C(=O)N[C@H]2C(=O)N[C@H]3C(=O)N[C@H](C(=O)N[C@H](C(=O)O)c4cc(O)cc(O)c4-c4cc3ccc4O)[C@H](O[C@H]3C[C@](C)(N)[C@@H](O)[C@H](C)O3)c3ccc(c(Cl)c3)Oc3cc2cc(c3O[C@@H]2O[C@H](CO)[C@@H](O)[C@H](O)[C@H]2O[C@H]2C[C@](C)(NCc3ccc(-c4ccc(Cl)cc4)cc3)[C@@H](O)[C@H](C)O2)Oc2ccc(cc2Cl)[C@H]1O [Oritavancin], the Bliss interaction score is 0.0841 with S. aureus Newman, -0.0806 in the experiment on S. aureus DSM 20231, -0.0514 in the experiment with S. pneumoniae D39V and 0.017 in the experiment with B. subtilis 168.

With `CO[C@@]12[C@H](COC(N)=O)C3=C(C(=O)C(C)=C(N)C3=O)N1C[C@@H]1N[C@@H]12` [MitomycinC] + O=C1CN(/N=C/c2ccc([N+](=O)[O-])o2)C(=O)N1 [Nitrofurantoin], the Bliss interaction score in the experiment with S. aureus Newman is -0.0345; in the experiment on S. aureus DSM 20231, -0.0298; with S. pneumoniae D39V, -0.145; in the experiment with B. subtilis 168, -0.0788.

In the case of `CO[C@@]12[C@H](COC(N)=O)C3=C(C(=O)C(C)=C(N)C3=O)N1C[C@@H]1N[C@@H]12` [MitomycinC] + Cn1nnc(-c2ccc(-c3ccc(N4C[C@H](CO)OC4=O)cc3F)cn2)n1 [Tedizolid], the Bliss interaction score with S. aureus Newman was -0.0886; in the experiment on S. aureus DSM 20231, -0.0817; in the experiment with S. pneumoniae D39V it was -0.124; in the experiment on B. subtilis 168, 0.0705.

With `CN[C@H](CC(C)C)C(=O)N[C@H]1C(=O)N[C@@H](CC(N)=O)C(=O)N[C@H]2C(=O)N[C@H]3C(=O)N[C@H](C(=O)N[C@H](C(=O)O)c4cc(O)cc(O)c4-c4cc3ccc4O)[C@H](O[C@H]3C[C@](C)(N)[C@@H](O)[C@H](C)O3)c3ccc(c(Cl)c3)Oc3cc2cc(c3O[C@@H]2O[C@H](CO)[C@@H](O)[C@H](O)[C@H]2O[C@H]2C[C@](C)(NCc3ccc(-c4ccc(Cl)cc4)cc3)[C@@H](O)[C@H](C)O2)Oc2ccc(cc2Cl)[C@H]1O` [Oritavancin] + CC1(C)S[C@@H]2[C@H](NC(=O)Cc3ccccc3)C(=O)N2[C@H]1C(=O)O [PenicillinG], the Bliss interaction score with S. aureus Newman is -0.066; in the experiment on S. aureus DSM 20231 it was 0.0356; in the experiment on S. pneumoniae D39V, 0.0412; in the experiment on B. subtilis 168 it was 0.0358.

For the molecule `CN[C@H](CC(C)C)C(=O)N[C@H]1C(=O)N[C@@H](CC(N)=O)C(=O)N[C@H]2C(=O)N[C@H]3C(=O)N[C@H](C(=O)N[C@H](C(=O)O)c4cc(O)cc(O)c4-c4cc3ccc4O)[C@H](O[C@H]3C[C@](C)(N)[C@@H](O)[C@H](C)O3)c3ccc(c(Cl)c3)Oc3cc2cc(c3O[C@@H]2O[C@H](CO)[C@@H](O)[C@H](O)[C@H]2O[C@H]2C[C@](C)(NCc3ccc(-c4ccc(Cl)cc4)cc3)[C@@H](O)[C@H](C)O2)Oc2ccc(cc2Cl)[C@H]1O` [Oritavancin] + CCN(CC)CCOC(=O)c1ccc(N)cc1 [Procaine], the Bliss interaction score with S. aureus Newman is -0.0513; in the experiment on S. aureus DSM 20231, -0.0785; with S. pneumoniae D39V, -0.0615; in the experiment with B. subtilis 168, -0.0177.

For the molecule `CC[C@H]1OC(=O)[C@H](C)[C@@H](O[C@H]2C[C@@](C)(OC)[C@@H](O)[C@H](C)O2)[C@H](C)[C@@H](O[C@@H]2O[C@H](C)C[C@H](N(C)C)[C@H]2O)[C@](C)(O)C[C@@H](C)C(=O)[C@H](C)[C@@H](O)[C@]1(C)O` [Erythromycin] + Cn1nnc(-c2ccc(-c3ccc(N4C[C@H](CO)OC4=O)cc3F)cn2)n1 [Tedizolid], the Bliss interaction score in the experiment with S. aureus Newman was -0.07; with S. aureus DSM 20231 it was -0.0541; with S. pneumoniae D39V, 0.0787; with B. subtilis 168, -0.0574.

With `CO[C@@]12[C@H](COC(N)=O)C3=C(C(=O)C(C)=C(N)C3=O)N1C[C@@H]1N[C@@H]12` [MitomycinC] + Cc1cc(NS(=O)(=O)c2ccc(N)cc2)no1 [Sulfamethoxazol], the Bliss interaction score is 0.0863 with S. aureus Newman, 0.036 with S. aureus DSM 20231, -0.0583 in the experiment with S. pneumoniae D39V and 0.082 with B. subtilis 168.

Take `CC[C@H](C)[C@H](N)C1=N[C@H](C(=O)N[C@@H](CC(C)C)C(=O)N[C@H](CCC(=O)O)C(=O)N[C@H](C(=O)N[C@H]2CCCCNC(=O)[C@H](CC(N)=O)NC(=O)[C@@H](CC(=O)O)NC(=O)[C@H](Cc3cnc[nH]3)NC(=O)[C@@H](Cc3ccccc3)NC(=O)[C@H]([C@@H](C)CC)NC(=O)[C@@H](CCCN)NC2=O)[C@@H](C)CC)CS1` [Bacitracin] + Oc1cc(Cl)ccc1Oc1ccc(Cl)cc1Cl [Triclosan]: the Bliss interaction score with S. aureus Newman (main component drawn) was -0.0148; with S. aureus DSM 20231 (main component drawn) it was 0.0303; with S. pneumoniae D39V (main component drawn), 0.056; with B. subtilis 168 (main component drawn), -0.136.

For the molecule `CC[C@H]1OC(=O)[C@H](C)[C@@H](O[C@H]2C[C@@](C)(OC)[C@@H](O)[C@H](C)O2)[C@H](C)[C@@H](O[C@@H]2O[C@H](C)C[C@H](N(C)C)[C@H]2O)[C@](C)(O)C[C@@H](C)C(=O)[C@H](C)[C@@H](O)[C@]1(C)O` [Erythromycin] + CO[C@H]1/C=C/O[C@@]2(C)Oc3c(C)c(O)c4c(O)c(c(/C=N/N5CCN(C)CC5)c(O)c4c3C2=O)NC(=O)/C(C)=C\C=C\[C@H](C)[C@H](O)[C@@H](C)[C@@H](O)[C@@H](C)[C@H](OC(C)=O)[C@@H]1C [Rifampicin], the Bliss interaction score in the experiment on S. aureus Newman is 0.0582; in the experiment with S. aureus DSM 20231, 0.0363; in the experiment with S. pneumoniae D39V it was 0.0763; in the experiment on B. subtilis 168 it was 0.116.

For the molecule `CC[C@H]1OC(=O)[C@H](C)[C@@H](O[C@H]2C[C@@](C)(OC)[C@@H](O)[C@H](C)O2)[C@H](C)[C@@H](O[C@@H]2O[C@H](C)C[C@H](N(C)C)[C@H]2O)[C@](C)(O)C[C@@H](C)C(=O)[C@H](C)[C@@H](O)[C@]1(C)O` [Erythromycin] + CO[C@@H]1[C@@H](OC(N)=O)[C@@H](O)[C@H](Oc2ccc3c(O)c(NC(=O)c4ccc(O)c(CC=C(C)C)c4)c(=O)oc3c2C)OC1(C)C [Novobiocin], the Bliss interaction score with S. aureus Newman is 0.0699; with S. aureus DSM 20231 it was -0.0443; with S. pneumoniae D39V it was -0.114; in the experiment with B. subtilis 168, -0.0636.

In the case of `CC(=O)NC[C@H]1CN(c2ccc(N3CCOCC3)c(F)c2)C(=O)O1` [Linezolid] + Oc1cc(Cl)ccc1Oc1ccc(Cl)cc1Cl [Triclosan], the Bliss interaction score in the experiment with S. aureus Newman is 0.026; in the experiment with S. aureus DSM 20231, -0.0777; in the experiment on S. pneumoniae D39V it was -0.0928; in the experiment on B. subtilis 168, 0.0335.

Consider `CN[C@@H]1[C@H](O)[C@H](NC)[C@H]2O[C@@]3(O)C(=O)C[C@@H](C)O[C@H]3O[C@@H]2[C@H]1O` [Spectinomycin] + Oc1cc(Cl)ccc1Oc1ccc(Cl)cc1Cl [Triclosan], for which the Bliss interaction score in the experiment with S. aureus Newman is 0.0626; in the experiment on S. aureus DSM 20231, -0.0648; with S. pneumoniae D39V, 0.0557; in the experiment on B. subtilis 168 it was -0.0762.

Take `CC[C@H]1OC(=O)[C@H](C)[C@@H](O[C@H]2C[C@@](C)(OC)[C@@H](O)[C@H](C)O2)[C@H](C)[C@@H](O[C@@H]2O[C@H](C)C[C@H](N(C)C)[C@H]2O)[C@](C)(O)C[C@@H](C)C(=O)[C@H](C)[C@@H](O)[C@]1(C)O` [Erythromycin] + COc1cc(Cc2cnc(N)nc2N)cc(OC)c1OC [Trimethoprim]: the Bliss interaction score in the experiment with S. aureus Newman is 0.0715; in the experiment on S. aureus DSM 20231, 0.0179; in the experiment with S. pneumoniae D39V, -0.0464; in the experiment on B. subtilis 168, -0.155.

`CN[C@H](CC(C)C)C(=O)N[C@H]1C(=O)N[C@@H](CC(N)=O)C(=O)N[C@H]2C(=O)N[C@H]3C(=O)N[C@H](C(=O)N[C@H](C(=O)O)c4cc(O)cc(O)c4-c4cc3ccc4O)[C@H](O[C@H]3C[C@](C)(N)[C@@H](O)[C@H](C)O3)c3ccc(c(Cl)c3)Oc3cc2cc(c3O[C@@H]2O[C@H](CO)[C@@H](O)[C@H](O)[C@H]2O[C@H]2C[C@](C)(NCc3ccc(-c4ccc(Cl)cc4)cc3)[C@@H](O)[C@H](C)O2)Oc2ccc(cc2Cl)[C@H]1O` [Oritavancin] + Oc1cc(Cl)ccc1Oc1ccc(Cl)cc1Cl [Triclosan]: the Bliss interaction score is -0.0473 in the experiment on S. aureus Newman, 0.108 in the experiment on S. aureus DSM 20231, 0.102 in the experiment with S. pneumoniae D39V and 0.0201 in the experiment with B. subtilis 168.

The record behind these values is the supplement of paper PMC10627819.
